Results reported in paper PMC12670405, “Second-Generation AURKA-Targeting PROTACs: Structural Optimization toward in Vivo Degradation in Neuroblastoma” (Journal of Medicinal Chemistry, 2025).

How the values were obtained:
Experiment in all cases: KINOMEscan scanMAX
Format in all cases: binding
Conditions in all cases: read-out: Percent Control
CHEK2 = biological target: T1, CHEK2 (Homo sapiens, UniProt O96017)
T1 construct: purchased Eurofins Discovery (DiscoverX KINOMEscan scanMAX)
Description: (§1) The kinome-wide binding assay was performed by Eurofins Discovery using the scanMAX screening platform. More information can be found on the Eurofins Discovery Web site.

OSR1 = biological target: T2, OSR1 (Homo sapiens, UniProt O95747)
T2 construct: purchased Eurofins Discovery (DiscoverX KINOMEscan scanMAX)
Description: as §1

ULK1 = biological target: T3, ULK1 (Homo sapiens, UniProt O75385)
T3 construct: purchased Eurofins Discovery (DiscoverX KINOMEscan scanMAX)
Description: as §1

PIK3CG = biological target: T4, PIK3CG (Homo sapiens, UniProt P48736)
T4 construct: purchased Eurofins Discovery (DiscoverX KINOMEscan scanMAX)
Description: as §1

EGFR(L858R) = biological target: T5, EGFR(L858R) (Homo sapiens, UniProt P00533, L858R)
T5 construct: purchased Eurofins Discovery (DiscoverX KINOMEscan scanMAX)
Description: as §1

CSNK1G2 = biological target: T6, CSNK1G2 (Homo sapiens, UniProt P78368)
T6 construct: purchased Eurofins Discovery (DiscoverX KINOMEscan scanMAX)
Description: as §1

FLT3(R834Q) = biological target: T7, FLT3(R834Q) (Homo sapiens, UniProt P36888, R834Q)
T7 construct: purchased Eurofins Discovery (DiscoverX KINOMEscan scanMAX)
Description: as §1

MTOR = biological target: T8, MTOR (Homo sapiens, UniProt P42345)
T8 construct: purchased Eurofins Discovery (DiscoverX KINOMEscan scanMAX)
Description: as §1

EPHB2 = biological target: T9, EPHB2 (Homo sapiens, UniProt P29323)
T9 construct: purchased Eurofins Discovery (DiscoverX KINOMEscan scanMAX)
Description: as §1

[1] = biological target: T10, TYK2(JH2domain-pseudokinase) (Homo sapiens, UniProt P29597)
T10 construct: TYK2(JH2domain-pseudokinase); purchased Eurofins Discovery (DiscoverX KINOMEscan scanMAX)
Description: as §1

FGFR4 = biological target: T11, FGFR4 (Homo sapiens, UniProt P22455)
T11 construct: purchased Eurofins Discovery (DiscoverX KINOMEscan scanMAX)
Description: as §1

RIOK2 = biological target: T12, RIOK2 (Homo sapiens, UniProt Q9BVS4)
T12 construct: purchased Eurofins Discovery (DiscoverX KINOMEscan scanMAX)
Description: as §1

BLK = biological target: T13, BLK (Homo sapiens, UniProt P51451)
T13 construct: purchased Eurofins Discovery (DiscoverX KINOMEscan scanMAX)
Description: as §1

NDR2 = biological target: T14, NDR2 (Homo sapiens, UniProt Q9Y2H1)
T14 construct: purchased Eurofins Discovery (DiscoverX KINOMEscan scanMAX)
Description: as §1

LOK = biological target: T15, LOK (Homo sapiens, UniProt O94804)
T15 construct: purchased Eurofins Discovery (DiscoverX KINOMEscan scanMAX)
Description: as §1

STK36 = biological target: T16, STK36 (Homo sapiens, UniProt Q9NRP7)
T16 construct: purchased Eurofins Discovery (DiscoverX KINOMEscan scanMAX)
Description: as §1

NEK9 = biological target: T17, NEK9 (Homo sapiens, UniProt Q8TD19)
T17 construct: purchased Eurofins Discovery (DiscoverX KINOMEscan scanMAX)
Description: as §1

[2] = biological target: T18, RSK3(Kin.Dom.2-C-terminal) (Homo sapiens, UniProt Q15349)
T18 construct: RSK3(Kin.Dom.2-C-terminal); purchased Eurofins Discovery (DiscoverX KINOMEscan scanMAX)
Description: as §1

ERN1 = biological target: T19, ERN1 (Homo sapiens, UniProt O75460)
T19 construct: purchased Eurofins Discovery (DiscoverX KINOMEscan scanMAX)
Description: as §1

TRPM6 = biological target: T20, TRPM6 (Homo sapiens, UniProt Q9BX84)
T20 construct: purchased Eurofins Discovery (DiscoverX KINOMEscan scanMAX)
Description: as §1

SgK110 = biological target: T21, SgK110 (Homo sapiens, UniProt P0C264)
T21 construct: purchased Eurofins Discovery (DiscoverX KINOMEscan scanMAX)
Description: as §1

PIK3CA(E542K) = biological target: T22, PIK3CA(E542K) (Homo sapiens, UniProt P42336, E542K)
T22 construct: purchased Eurofins Discovery (DiscoverX KINOMEscan scanMAX)
Description: as §1

p38-alpha = biological target: T23, p38-alpha (Homo sapiens, UniProt Q16539)
T23 construct: purchased Eurofins Discovery (DiscoverX KINOMEscan scanMAX)
Description: as §1

CSF1R-autoinhibited = biological target: T24, CSF1R-autoinhibited (Homo sapiens, UniProt P07333)
T24 construct: purchased Eurofins Discovery (DiscoverX KINOMEscan scanMAX)
Description: as §1

PCTK3 = biological target: T25, PCTK3 (Homo sapiens, UniProt Q07002)
T25 construct: purchased Eurofins Discovery (DiscoverX KINOMEscan scanMAX)
Description: as §1

FLT3 = biological target: T26, FLT3 (Homo sapiens, UniProt P36888)
T26 construct: purchased Eurofins Discovery (DiscoverX KINOMEscan scanMAX)
Description: as §1

DMPK2 = biological target: T27, DMPK2 (Homo sapiens, UniProt Q6DT37)
T27 construct: purchased Eurofins Discovery (DiscoverX KINOMEscan scanMAX)
Description: as §1

GAK = biological target: T28, GAK (Homo sapiens, UniProt O14976)
T28 construct: purchased Eurofins Discovery (DiscoverX KINOMEscan scanMAX)
Description: as §1

TNK1 = biological target: T29, TNK1 (Homo sapiens, UniProt Q13470)
T29 construct: purchased Eurofins Discovery (DiscoverX KINOMEscan scanMAX)
Description: as §1

PIK3CA(C420R) = biological target: T30, PIK3CA(C420R) (Homo sapiens, UniProt P42336, C420R)
T30 construct: purchased Eurofins Discovery (DiscoverX KINOMEscan scanMAX)
Description: as §1

PYK2 = biological target: T31, PYK2 (Homo sapiens, UniProt Q14289)
T31 construct: purchased Eurofins Discovery (DiscoverX KINOMEscan scanMAX)
Description: as §1

PIK3CA(H1047L) = biological target: T32, PIK3CA(H1047L) (Homo sapiens, UniProt P42336, H1047L)
T32 construct: purchased Eurofins Discovery (DiscoverX KINOMEscan scanMAX)
Description: as §1

AURKC = biological target: T33, AURKC (Homo sapiens, UniProt Q9UQB9)
T33 construct: purchased Eurofins Discovery (DiscoverX KINOMEscan scanMAX)
Description: as §1

T13 sequence (P51451 whole entry): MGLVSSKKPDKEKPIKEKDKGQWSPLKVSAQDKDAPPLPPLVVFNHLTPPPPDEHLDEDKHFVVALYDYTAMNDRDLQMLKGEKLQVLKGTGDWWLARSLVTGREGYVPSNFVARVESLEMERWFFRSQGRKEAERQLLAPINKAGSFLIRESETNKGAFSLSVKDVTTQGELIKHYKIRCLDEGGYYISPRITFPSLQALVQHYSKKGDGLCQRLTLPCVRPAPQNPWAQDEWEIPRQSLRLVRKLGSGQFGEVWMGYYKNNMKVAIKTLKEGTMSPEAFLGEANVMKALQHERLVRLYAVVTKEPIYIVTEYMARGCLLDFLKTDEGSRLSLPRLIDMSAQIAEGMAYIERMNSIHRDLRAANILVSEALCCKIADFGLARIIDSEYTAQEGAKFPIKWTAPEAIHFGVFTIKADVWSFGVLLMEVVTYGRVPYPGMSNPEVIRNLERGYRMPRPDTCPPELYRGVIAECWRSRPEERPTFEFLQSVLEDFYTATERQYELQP
T25 sequence (Q07002 whole entry): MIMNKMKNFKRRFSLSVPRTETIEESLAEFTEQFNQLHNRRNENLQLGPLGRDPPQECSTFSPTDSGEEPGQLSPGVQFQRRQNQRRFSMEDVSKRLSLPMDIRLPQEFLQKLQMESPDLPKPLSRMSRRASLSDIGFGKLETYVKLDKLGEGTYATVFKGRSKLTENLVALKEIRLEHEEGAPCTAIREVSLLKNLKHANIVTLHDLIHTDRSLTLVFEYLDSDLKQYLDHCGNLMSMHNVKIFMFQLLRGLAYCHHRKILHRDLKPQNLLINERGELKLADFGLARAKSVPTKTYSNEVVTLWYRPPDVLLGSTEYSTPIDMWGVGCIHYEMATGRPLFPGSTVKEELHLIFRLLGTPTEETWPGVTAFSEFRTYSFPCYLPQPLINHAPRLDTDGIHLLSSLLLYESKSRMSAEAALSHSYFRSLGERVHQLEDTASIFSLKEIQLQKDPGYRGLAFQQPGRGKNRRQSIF
T17 sequence (Q8TD19 whole entry): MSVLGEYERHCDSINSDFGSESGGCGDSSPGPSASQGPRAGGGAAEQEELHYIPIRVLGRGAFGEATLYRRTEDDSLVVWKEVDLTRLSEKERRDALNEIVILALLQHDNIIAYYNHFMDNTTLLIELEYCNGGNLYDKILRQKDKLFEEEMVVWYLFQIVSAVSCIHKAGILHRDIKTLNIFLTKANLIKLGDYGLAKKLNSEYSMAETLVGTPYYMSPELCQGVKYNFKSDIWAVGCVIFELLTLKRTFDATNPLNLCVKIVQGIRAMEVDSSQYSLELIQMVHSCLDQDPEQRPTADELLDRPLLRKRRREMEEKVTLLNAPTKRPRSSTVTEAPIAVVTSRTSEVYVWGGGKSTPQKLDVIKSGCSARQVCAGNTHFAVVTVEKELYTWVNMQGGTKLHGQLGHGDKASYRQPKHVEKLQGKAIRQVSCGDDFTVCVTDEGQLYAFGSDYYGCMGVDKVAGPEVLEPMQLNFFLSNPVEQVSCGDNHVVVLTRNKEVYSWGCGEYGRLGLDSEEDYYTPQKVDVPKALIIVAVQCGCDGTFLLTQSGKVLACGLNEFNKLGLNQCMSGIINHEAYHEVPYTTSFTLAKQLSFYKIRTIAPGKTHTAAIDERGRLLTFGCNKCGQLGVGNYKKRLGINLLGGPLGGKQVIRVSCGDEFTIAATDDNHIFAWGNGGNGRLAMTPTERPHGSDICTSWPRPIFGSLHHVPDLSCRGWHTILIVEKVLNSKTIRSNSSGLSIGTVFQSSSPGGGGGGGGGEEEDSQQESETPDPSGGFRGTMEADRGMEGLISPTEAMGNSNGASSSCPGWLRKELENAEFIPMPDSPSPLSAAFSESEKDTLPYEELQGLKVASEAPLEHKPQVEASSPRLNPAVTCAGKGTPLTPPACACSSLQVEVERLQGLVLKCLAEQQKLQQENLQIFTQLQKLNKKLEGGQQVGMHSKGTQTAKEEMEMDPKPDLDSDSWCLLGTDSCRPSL
T3 sequence (O75385 whole entry): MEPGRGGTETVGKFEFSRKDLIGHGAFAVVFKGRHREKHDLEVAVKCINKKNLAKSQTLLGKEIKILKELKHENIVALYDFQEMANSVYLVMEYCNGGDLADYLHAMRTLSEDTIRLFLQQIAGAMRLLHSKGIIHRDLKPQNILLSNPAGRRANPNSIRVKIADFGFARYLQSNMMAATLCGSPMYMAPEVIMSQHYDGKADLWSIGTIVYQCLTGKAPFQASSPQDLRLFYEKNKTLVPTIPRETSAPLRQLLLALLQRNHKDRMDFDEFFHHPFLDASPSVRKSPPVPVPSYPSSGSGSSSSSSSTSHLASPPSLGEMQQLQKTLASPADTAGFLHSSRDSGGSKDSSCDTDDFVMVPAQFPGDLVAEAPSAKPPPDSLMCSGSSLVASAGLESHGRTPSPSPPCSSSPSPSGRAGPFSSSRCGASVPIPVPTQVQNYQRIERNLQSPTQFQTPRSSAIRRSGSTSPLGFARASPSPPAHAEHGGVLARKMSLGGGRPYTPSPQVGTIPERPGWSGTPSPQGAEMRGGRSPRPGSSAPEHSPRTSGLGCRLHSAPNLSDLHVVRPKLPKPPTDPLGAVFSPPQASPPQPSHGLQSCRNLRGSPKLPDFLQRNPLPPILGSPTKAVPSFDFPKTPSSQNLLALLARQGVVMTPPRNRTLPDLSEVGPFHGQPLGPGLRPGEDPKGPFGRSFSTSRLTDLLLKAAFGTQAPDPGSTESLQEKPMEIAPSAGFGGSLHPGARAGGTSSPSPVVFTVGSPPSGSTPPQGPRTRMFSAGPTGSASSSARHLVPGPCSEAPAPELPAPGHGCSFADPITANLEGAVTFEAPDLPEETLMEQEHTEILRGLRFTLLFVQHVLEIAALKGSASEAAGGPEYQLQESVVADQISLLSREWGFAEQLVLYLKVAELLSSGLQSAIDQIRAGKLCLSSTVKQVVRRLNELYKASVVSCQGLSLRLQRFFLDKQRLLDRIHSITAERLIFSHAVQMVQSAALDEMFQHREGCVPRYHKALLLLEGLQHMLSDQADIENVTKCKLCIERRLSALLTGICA
T10 sequence (P29597 556-888 limits assumed): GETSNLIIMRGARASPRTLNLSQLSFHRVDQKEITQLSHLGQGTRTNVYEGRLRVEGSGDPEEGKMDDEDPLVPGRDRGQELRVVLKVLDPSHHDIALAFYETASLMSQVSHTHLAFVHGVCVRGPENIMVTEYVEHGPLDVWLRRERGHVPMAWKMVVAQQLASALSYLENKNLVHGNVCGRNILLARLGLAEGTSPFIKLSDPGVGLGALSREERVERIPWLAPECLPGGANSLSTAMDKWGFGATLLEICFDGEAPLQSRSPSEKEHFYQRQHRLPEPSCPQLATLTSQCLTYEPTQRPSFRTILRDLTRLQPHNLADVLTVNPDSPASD
T19 sequence (O75460 19-977): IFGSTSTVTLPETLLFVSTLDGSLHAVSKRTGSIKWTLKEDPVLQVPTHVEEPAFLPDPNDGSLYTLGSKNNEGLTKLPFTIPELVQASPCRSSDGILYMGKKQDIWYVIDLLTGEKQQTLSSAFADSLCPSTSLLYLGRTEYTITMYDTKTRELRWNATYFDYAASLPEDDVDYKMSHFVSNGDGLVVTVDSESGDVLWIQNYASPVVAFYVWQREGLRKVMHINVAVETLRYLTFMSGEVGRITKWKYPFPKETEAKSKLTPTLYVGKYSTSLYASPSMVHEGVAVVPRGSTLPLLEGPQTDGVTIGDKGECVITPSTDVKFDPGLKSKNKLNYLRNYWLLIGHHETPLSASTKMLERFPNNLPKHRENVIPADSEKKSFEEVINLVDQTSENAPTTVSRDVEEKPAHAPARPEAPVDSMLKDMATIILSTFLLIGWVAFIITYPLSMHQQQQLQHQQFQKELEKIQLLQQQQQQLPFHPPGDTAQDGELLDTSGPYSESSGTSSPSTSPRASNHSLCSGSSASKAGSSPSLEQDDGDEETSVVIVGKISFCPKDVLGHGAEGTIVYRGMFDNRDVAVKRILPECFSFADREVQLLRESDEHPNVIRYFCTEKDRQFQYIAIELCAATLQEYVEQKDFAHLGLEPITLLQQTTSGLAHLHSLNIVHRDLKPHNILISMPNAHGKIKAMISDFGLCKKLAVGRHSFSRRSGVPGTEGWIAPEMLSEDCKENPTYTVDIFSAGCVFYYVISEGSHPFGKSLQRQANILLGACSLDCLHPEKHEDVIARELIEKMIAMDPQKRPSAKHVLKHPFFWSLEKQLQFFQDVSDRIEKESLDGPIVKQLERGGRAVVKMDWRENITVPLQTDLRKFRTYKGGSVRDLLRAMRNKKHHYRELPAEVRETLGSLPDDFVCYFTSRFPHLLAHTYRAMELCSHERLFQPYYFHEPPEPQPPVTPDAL
T14 sequence (Q9Y2H1 whole entry): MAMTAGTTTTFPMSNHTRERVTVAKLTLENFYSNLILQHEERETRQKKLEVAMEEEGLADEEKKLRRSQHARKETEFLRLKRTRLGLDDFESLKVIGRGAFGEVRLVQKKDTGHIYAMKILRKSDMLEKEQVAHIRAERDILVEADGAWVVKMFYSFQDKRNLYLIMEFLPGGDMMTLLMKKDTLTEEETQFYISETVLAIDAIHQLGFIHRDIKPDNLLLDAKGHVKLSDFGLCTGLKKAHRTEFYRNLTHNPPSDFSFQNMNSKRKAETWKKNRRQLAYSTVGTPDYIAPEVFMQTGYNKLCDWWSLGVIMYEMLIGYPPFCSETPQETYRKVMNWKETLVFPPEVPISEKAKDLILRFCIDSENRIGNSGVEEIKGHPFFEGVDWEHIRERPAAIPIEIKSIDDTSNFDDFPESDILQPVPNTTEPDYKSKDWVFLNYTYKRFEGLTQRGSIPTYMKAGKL

SMILES: Cc1cc(Nc2ccc(F)c(CC3(C(=O)N4CCC(F)(CN5CCN(c6ccc(N7CCC(=O)NC7=O)cn6)CC5)CC4)CCN(Cc4cccc(Cl)c4F)CC3)n2)n[nH]1 [SK5527]
- remaining binding at 0.1 µM (CHEK2; 100 nM): 97%
- remaining binding at 1 µM (CHEK2; 1000 nM): 89%
- remaining binding at 0.1 µM (OSR1; 100 nM): 100%
- remaining binding at 1 µM (OSR1; 1000 nM): 97%
- remaining binding at 0.1 µM (ULK1; 100 nM): 92%
- remaining binding at 1 µM (ULK1; 1000 nM): 91%
- remaining binding at 0.1 µM (PIK3CG; 100 nM): 91%
- remaining binding at 1 µM (PIK3CG; 1000 nM): 94%
- remaining binding at 0.1 µM (EGFR(L858R); 100 nM): 97%
- remaining binding at 1 µM (EGFR(L858R); 1000 nM): 83%
- remaining binding at 0.1 µM (CSNK1G2; 100 nM): 98%
- remaining binding at 1 µM (CSNK1G2; 1000 nM): 93%
- remaining binding at 0.1 µM (FLT3(R834Q); 100 nM): 86%
- remaining binding at 1 µM (FLT3(R834Q); 1000 nM): 75%
- remaining binding at 0.1 µM (MTOR; 100 nM): 100%
- remaining binding at 1 µM (MTOR; 1000 nM): 100%
- remaining binding at 0.1 µM (EPHB2; 100 nM): 74%
- remaining binding at 1 µM (EPHB2; 1000 nM): 95%
- remaining binding at 0.1 µM ([1]; 100 nM): 51%
- remaining binding at 1 µM ([1]; 1000 nM): 51%
- remaining binding at 0.1 µM (FGFR4; 100 nM): 89%
- remaining binding at 1 µM (FGFR4; 1000 nM): 89%
- remaining binding at 0.1 µM (RIOK2; 100 nM): 93%
- remaining binding at 1 µM (RIOK2; 1000 nM): 64%
- remaining binding at 0.1 µM (BLK; 100 nM): 97%
- remaining binding at 1 µM (BLK; 1000 nM): 45%
- remaining binding at 0.1 µM (NDR2; 100 nM): 100%
- remaining binding at 1 µM (NDR2; 1000 nM): 91%
- remaining binding at 0.1 µM (LOK; 100 nM): 100%
- remaining binding at 1 µM (LOK; 1000 nM): 100%
- remaining binding at 0.1 µM (STK36; 100 nM): 71%
- remaining binding at 1 µM (STK36; 1000 nM): 94%
- remaining binding at 0.1 µM (NEK9; 100 nM): 78%
- remaining binding at 1 µM (NEK9; 1000 nM): 81%
- remaining binding at 0.1 µM ([2]; 100 nM): 88%
- remaining binding at 1 µM ([2]; 1000 nM): 92%
- remaining binding at 0.1 µM (ERN1; 100 nM): 100%
- remaining binding at 1 µM (ERN1; 1000 nM): 100%
- remaining binding at 0.1 µM (TRPM6; 100 nM): 100%
- remaining binding at 1 µM (TRPM6; 1000 nM): 100%
- remaining binding at 0.1 µM (SgK110; 100 nM): 100%
- remaining binding at 1 µM (SgK110; 1000 nM): 89%
- remaining binding at 0.1 µM (PIK3CA(E542K); 100 nM): 81%
- remaining binding at 1 µM (PIK3CA(E542K); 1000 nM): 68%
- remaining binding at 0.1 µM (p38-alpha; 100 nM): 100%
- remaining binding at 1 µM (p38-alpha; 1000 nM): 100%
- remaining binding at 0.1 µM (CSF1R-autoinhibited; 100 nM): 100%
- remaining binding at 1 µM (CSF1R-autoinhibited; 1000 nM): 100%
- remaining binding at 0.1 µM (PCTK3; 100 nM): 91%
- remaining binding at 1 µM (PCTK3; 1000 nM): 84%
- remaining binding at 0.1 µM (FLT3; 100 nM): 90%
- remaining binding at 1 µM (FLT3; 1000 nM): 77%
- remaining binding at 0.1 µM (DMPK2; 100 nM): 100%
- remaining binding at 1 µM (DMPK2; 1000 nM): 100%
- remaining binding at 0.1 µM (GAK; 100 nM): 88%
- remaining binding at 1 µM (GAK; 1000 nM): 99%
- remaining binding at 0.1 µM (TNK1; 100 nM): 66%
- remaining binding at 1 µM (TNK1; 1000 nM): 44%
- remaining binding at 0.1 µM (PIK3CA(C420R); 100 nM): 63%
- remaining binding at 1 µM (PIK3CA(C420R); 1000 nM): 100%
- remaining binding at 0.1 µM (PYK2; 100 nM): 91%
- remaining binding at 1 µM (PYK2; 1000 nM): 66%
- remaining binding at 0.1 µM (PIK3CA(H1047L); 100 nM): 63%
- remaining binding at 1 µM (PIK3CA(H1047L); 1000 nM): 100%
- remaining binding at 0.1 µM (AURKC; 100 nM): 100%
- remaining binding at 1 µM (AURKC; 1000 nM): 85%
